Source: patent publication US4423221A, “7-Carboethoxy-morphinan-6-one compounds” (SISA Pharmaceutical Laboratories, Inc., priority 1982, dated 1983)

Legend:
[1] = tested on: mice; assay: Acetic acid mouse writhing test (analgesic effects); type: in vivo, male CD-1 mice; conditions: subcutaneous, 0.5% acetic acid i.p. 15 min post drug, writhes counted over 20 min; for ED50: Mus musculus, sc, read-out: ED50 (dose required to reduce the number of writhes by 50%)
Method: (A) Analgesic effects upon mice (acetic acid writhing test).
Acetic Acid Mouse Writhing Test
Analgesic effects of the test compounds were determined in mice by use of the acetic acid writhing test described by B. A. Whittle, Brit. J. Pharmacol., 22:246 (1964). In this test, at least 3 groups of 5 male CD-1 mice each were given subcutaneous doses of the test drug dissolved in distilled water. In all cases, 0.4 milliliters of a 0.5% V/V acetic acid in distilled water solution was administered intraperitoneally 15 minutes post drug. The number of writhes in a 20 minute interval beginning 5 minutes after the acetic acid injection were determined and compared with the number of writhes in a control group which had received only acetic acid.
Percent inhibition of writhing was calculated as: [formula]
The ED50 dose, i.e., the dose required to reduce the number of writhes by 50%, was determined graphically from a plot of % inhibition as a probit verus log dose. Confidence limits of 95% were calculated on the basis of those results falling in the range 16-84% inhibition. See Lichtfield, J. T. and Wilcoxon, F., J. Pharmacol. Exp. Ther., 96, 99-113 (1949).

[2] = tested on: rats; assay: Narcotic antagonist activity, modified rat tail flick test (against ED80 dose of morphine); type: in vivo, male albino Wistar rats; conditions: ip, test drug intraperitoneally, ED80 dose of morphine s.c. 10 min later, retest 20 min after morphine, read-out: AD50 (dose required to inhibit the effect of morphine by 50%)
Method: (B) Narcotic antagonist activity in rats (modified rat tail flick test).
Evaluation of Narcotic Antagonist Activity
The narcotic antagonist effect of the test compound was determined by a modification of the rat tail flick procedure of Harris and Pierson (J. Pharmacol. Exp. Ther., 143:141 [1964]).
Male albino Wistar rats (100-120 g) were used for this study. A rat's tail is so placed so as to cover a photocell. Heat is applied by a lamp in a reflector with a timer being connected to the lamp and photocell so that the timer goes on when the light is turned on and is turned off when the photocell is uncovered. A rheostat, incorporated into a heating lamp, is used to adjust the intensity of the light falling on the tail of the rat such that the rat's control reaction time is from 2 to 4 seconds. Animals with a control reaction time outside this range are rejected. The rheostat adjustment is made only if a significant proportion (1 out of every 10 rats) of the reaction times are outside the range of 2 to 4 seconds. Groups of 5 rats were used, and 2 control times were determined at 60 and 30 minutes prior to […] injection of the drug.
At least 30 minutes after the last control run the test drug was given intraperitoneally. This was followed 10 minutes later by an ED80 dose of morphine subcutaneously. The animals were retested at 20 minutes after the morphine injection. Control animals were given vehicle and morphine only. The data were calculated as follows: [formula]
The data were plotted on log-probit paper and AD50 values, i.e., the dose required to inhibit the effect of morphine by 50% within 95% confidence limits, were determined by the method of Lichtfield and Wilcoxon.

| Structure (SMILES) | ED50 [1] [mg/kg] | ED50 [2] [mg/kg] | ED50 (dose required to reduce the number of writhes by 50%) [1] |
| --- | --- | --- | --- |
| CCOC(=O)C1C[C@H]2[C@H]3Cc4ccc(OC)cc4[C@@]2(CCN3CC2CC2)CC1=O (stereo partly drawn) [TR-5299, 7-carboethoxy-17-cyclopropylmethyl-3-methoxy-morphinan-6-one] | > 10 | 13 |  |
| CCOC(=O)C1CC2C3Cc4ccc(OC)cc4C2(CCN3CC2CCC2)CC1=O (stereo not drawn) [TR-5300, 7-carboethoxy-17-cyclobutylmethyl-3-methoxy-morphinan-6-one] |  | 13 | IA 10.0 |
| CCOC(=O)C1C[C@H]2[C@H]3Cc4ccc(O)cc4[C@@]2(CCN3CC2CCC2)CC1=O (stereo partly drawn) [TR-5307, 7-carboethoxy-17-cyclobutylmethyl-3-hydroxy-morphinan-6-one] | 1.15 | > 10 |  |
| CCOC(=O)C1C[C@H]2[C@H]3Cc4ccc(O)cc4[C@@]2(CCN3CC2CC2)CC1=O (stereo partly drawn) [TR-5308, 7-carboethoxy-17-cyclopropylmethyl-3-hydroxy-morphinan-6-one] | 4.9 | 3.12 |  |
| CCOC(=O)C1C[C@H]2[C@H]3Cc4ccc(OC)cc4[C@@]2(CCN3C)CC1=O (stereo partly drawn) [TR-5318, 7-carboethoxy-3-methoxy-17-methylmorphinan-6-one] | 4.6 |  |  |
| CCOC(=O)C1C[C@H]2[C@H]3Cc4ccc(O)cc4[C@@]2(CCN3C)CC1=O (stereo partly drawn) [TR-5320, 7-carboethoxy-3-hydroxy-17-methylmorphinan-6-one] | 0.72 | 3.6 |  |
| CCOC(=O)C1C[C@@H]2[C@H]3Cc4ccc(OC)cc4[C@@]2(CCN3C)CC1=O (stereo partly drawn) [TR-5336, 7-carboethoxy-3-methoxy-17-methyl-14α-morphinan-6-one] | > 10 |  |  |
| CCOC(=O)C1C[C@@H]2[C@H]3Cc4ccc(OC)cc4[C@@]2(CCN3CC2CC2)CC1=O (stereo partly drawn) [TR-5337, 7-carboethoxy-17-cyclopropylmethyl-3-methoxy-14α-morphinan-6-one] |  | > 10 | IA 10.0 |
| CCOC(=O)C1C[C@@H]2[C@H]3Cc4ccc(O)cc4[C@@]2(CCN3C)CC1=O (stereo partly drawn) [TR-5338, 7-carboethoxy-3-hydroxy-17-methyl-14α-morphinan-6-one] | 0.6 | 0.7 |  |
| CCOC(=O)C1C[C@@H]2[C@H]3Cc4ccc(O)cc4[C@@]2(CCN3CC2CC2)CC1=O (stereo partly drawn) [TR-5339, 7-carboethoxy-17-cyclopropylmethyl-3-hydroxy-14α-morphinan-6-one] | 3.7 | 2.54 |  |
